Entries after “also recorded” stand apart in the source; their conditions may differ. Where two headings read alike, the source gives them in different places.
What was measured:
[1] = system: influenza virus (INFV) H1N1 A/California/07/09; type: cell-based; settings: read-out: IC50 against influenza virus; Vero cells, MOI 0.01, 35 °C, TPCK trypsin
[2] = system: herpes simplex virus (HSV) 1 MacIntyre; type: cell-based, herpes simplex virus 1
[3] = system: dengue virus (DNV) serotype 2 D2Y98P; experiment: microbe, parasite or virus in culture; type: cell-based, dengue virus serotype 2; settings: read-out: IC50 against dengue virus type 2
[4] = system: Rift Valley fever virus (RVFV); type: cell-based; settings: A549 cells, primary screening, 100 to 0.4 µM, 16 h post infection
[5] = system: adenovirus 5 (HAdV5); experiment: microbe, parasite or virus in culture; type: cell-based; settings: read-out: IC50 against HAdV type 5
[6] = system: SARS-CoV-2; experiment: microbe, parasite or virus in culture; type: cell-based; settings: Calu-3 cells, 48 h, immunofluorescence of infected cells
[7] = system: human adenovirus (HAdV); experiment: microbe, parasite or virus in culture; type: cell-based, human adenovirus serotype 11 (RCAd11pGFP)
[8] = system: human cytomegalovirus (HCMV) Merlin strain; experiment: HCMV infectivity assay in human foreskin fibroblasts; type: cell-based; settings: 5 days, column of table headed IC50 [µM]
[9] = molecular target: T1, TIE-2 (Homo sapiens, UniProt Q02763); experiment: Vanadate-induced TIE-2 receptor phosphorylation in CHO cells; type: cell-based; set-up: host or cells: Chinese hamster ovary (CHO) cells; settings: Chinese hamster ovary (CHO) cells, read-out: IC50, vanadate-induced inhibition of TIE-2 receptor phosphorylation
T1 sequence (Q02763 23-1124): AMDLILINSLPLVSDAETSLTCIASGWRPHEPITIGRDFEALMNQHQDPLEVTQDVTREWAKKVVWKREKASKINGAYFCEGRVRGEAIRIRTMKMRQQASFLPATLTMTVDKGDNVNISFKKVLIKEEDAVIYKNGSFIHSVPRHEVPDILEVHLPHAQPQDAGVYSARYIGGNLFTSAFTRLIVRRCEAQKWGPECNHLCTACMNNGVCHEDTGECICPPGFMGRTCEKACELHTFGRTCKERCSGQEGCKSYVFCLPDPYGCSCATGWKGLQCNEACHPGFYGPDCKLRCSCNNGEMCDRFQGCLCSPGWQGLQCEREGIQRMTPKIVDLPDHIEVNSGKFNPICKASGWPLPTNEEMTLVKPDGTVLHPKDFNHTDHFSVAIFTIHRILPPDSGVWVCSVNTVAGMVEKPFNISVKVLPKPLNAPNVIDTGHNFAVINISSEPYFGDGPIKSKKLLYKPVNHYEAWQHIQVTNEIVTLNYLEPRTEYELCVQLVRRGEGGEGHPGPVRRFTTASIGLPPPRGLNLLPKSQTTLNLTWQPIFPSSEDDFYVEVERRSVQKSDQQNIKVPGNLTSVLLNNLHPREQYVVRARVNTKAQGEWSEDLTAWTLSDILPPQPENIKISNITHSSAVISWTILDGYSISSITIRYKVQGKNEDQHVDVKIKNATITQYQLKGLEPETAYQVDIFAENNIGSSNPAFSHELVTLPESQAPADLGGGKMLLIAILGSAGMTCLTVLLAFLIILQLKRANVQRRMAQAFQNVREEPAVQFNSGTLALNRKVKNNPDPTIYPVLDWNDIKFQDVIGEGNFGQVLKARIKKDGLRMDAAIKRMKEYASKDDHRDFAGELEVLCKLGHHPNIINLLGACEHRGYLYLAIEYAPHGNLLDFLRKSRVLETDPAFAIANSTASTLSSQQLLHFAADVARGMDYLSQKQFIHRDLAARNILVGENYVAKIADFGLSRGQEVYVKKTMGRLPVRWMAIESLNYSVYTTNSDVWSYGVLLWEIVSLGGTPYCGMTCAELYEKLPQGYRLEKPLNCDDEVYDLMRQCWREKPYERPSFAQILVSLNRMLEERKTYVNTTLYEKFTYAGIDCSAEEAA

[10] = system: chikungunya virus (CHKV) 181/25; type: cell-based
[11] = system: SARS-CoV-2; experiment: microbe, parasite or virus in culture; type: cell-based; settings: for IC50: read-out: IC50 against SARS-CoV-2
[12] = system: Zika virus (ZIKV) FSS13025; type: cell-based
[13] = system: Herpes simplex virus (HSV) 2 MS; type: cell-based, herpes simplex virus 2
[14] = system: A549 cells
[15] = molecular target: MAPK11 (Homo sapiens, UniProt Q15759); experiment: Kinase inhibition profile: MAPK11; type: biochemical; settings: kinase inhibition profile (DSTT, Cerep); preliminary
MAPK11, sequence (Q15759 whole entry): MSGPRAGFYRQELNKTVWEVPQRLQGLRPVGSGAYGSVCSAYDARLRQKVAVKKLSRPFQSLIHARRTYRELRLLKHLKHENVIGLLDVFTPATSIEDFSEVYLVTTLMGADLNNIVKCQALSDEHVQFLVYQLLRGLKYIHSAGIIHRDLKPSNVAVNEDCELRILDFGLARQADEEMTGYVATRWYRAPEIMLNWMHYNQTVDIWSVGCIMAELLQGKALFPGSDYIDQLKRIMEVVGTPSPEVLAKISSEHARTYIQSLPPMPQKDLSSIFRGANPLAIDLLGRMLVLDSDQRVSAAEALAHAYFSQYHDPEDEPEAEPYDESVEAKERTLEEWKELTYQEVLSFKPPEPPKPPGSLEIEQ

[16] = molecular target: CDK8 (Homo sapiens, UniProt P49336); experiment: Kinase inhibition profile: CDK8; type: biochemical; settings: kinase inhibition profile (DSTT, Cerep); preliminary
CDK8, sequence (P49336 whole entry): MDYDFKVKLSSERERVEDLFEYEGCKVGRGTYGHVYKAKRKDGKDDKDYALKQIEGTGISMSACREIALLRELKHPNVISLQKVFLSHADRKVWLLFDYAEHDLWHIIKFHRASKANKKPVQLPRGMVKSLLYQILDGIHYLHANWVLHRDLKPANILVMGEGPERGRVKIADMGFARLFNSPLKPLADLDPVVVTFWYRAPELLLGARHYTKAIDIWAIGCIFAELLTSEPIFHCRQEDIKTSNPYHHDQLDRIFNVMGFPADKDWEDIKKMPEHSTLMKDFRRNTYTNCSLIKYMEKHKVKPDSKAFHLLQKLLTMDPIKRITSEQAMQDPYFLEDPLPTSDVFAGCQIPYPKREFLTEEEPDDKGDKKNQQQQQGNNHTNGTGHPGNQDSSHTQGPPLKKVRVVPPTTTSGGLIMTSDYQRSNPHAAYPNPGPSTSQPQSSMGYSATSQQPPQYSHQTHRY
CDK8, sequence (P24863 whole entry partner): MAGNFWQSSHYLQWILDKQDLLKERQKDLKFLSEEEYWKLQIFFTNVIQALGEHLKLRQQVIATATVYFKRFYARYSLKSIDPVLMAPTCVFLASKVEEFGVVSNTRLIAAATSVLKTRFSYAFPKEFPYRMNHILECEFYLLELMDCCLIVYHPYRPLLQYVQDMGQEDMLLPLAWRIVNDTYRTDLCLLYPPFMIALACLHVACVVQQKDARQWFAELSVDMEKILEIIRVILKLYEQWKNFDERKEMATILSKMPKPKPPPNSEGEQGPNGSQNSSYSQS

[17] = molecular target: T1, TIE-2; experiment: Kinase inhibition profile: TIE-2; type: biochemical; settings: kinase inhibition profile (DSTT, Cerep); preliminary
[18] = system: SARS-CoV-2; experiment: Primary human mucociliary airway (ALI) SARS-CoV-2 infection model; type: cell-based; settings: tested at 10 µM
[19] = molecular target: KDR (Homo sapiens, UniProt P35968); experiment: Kinase inhibition profile: KDR
KDR, sequence (P35968 20-1356): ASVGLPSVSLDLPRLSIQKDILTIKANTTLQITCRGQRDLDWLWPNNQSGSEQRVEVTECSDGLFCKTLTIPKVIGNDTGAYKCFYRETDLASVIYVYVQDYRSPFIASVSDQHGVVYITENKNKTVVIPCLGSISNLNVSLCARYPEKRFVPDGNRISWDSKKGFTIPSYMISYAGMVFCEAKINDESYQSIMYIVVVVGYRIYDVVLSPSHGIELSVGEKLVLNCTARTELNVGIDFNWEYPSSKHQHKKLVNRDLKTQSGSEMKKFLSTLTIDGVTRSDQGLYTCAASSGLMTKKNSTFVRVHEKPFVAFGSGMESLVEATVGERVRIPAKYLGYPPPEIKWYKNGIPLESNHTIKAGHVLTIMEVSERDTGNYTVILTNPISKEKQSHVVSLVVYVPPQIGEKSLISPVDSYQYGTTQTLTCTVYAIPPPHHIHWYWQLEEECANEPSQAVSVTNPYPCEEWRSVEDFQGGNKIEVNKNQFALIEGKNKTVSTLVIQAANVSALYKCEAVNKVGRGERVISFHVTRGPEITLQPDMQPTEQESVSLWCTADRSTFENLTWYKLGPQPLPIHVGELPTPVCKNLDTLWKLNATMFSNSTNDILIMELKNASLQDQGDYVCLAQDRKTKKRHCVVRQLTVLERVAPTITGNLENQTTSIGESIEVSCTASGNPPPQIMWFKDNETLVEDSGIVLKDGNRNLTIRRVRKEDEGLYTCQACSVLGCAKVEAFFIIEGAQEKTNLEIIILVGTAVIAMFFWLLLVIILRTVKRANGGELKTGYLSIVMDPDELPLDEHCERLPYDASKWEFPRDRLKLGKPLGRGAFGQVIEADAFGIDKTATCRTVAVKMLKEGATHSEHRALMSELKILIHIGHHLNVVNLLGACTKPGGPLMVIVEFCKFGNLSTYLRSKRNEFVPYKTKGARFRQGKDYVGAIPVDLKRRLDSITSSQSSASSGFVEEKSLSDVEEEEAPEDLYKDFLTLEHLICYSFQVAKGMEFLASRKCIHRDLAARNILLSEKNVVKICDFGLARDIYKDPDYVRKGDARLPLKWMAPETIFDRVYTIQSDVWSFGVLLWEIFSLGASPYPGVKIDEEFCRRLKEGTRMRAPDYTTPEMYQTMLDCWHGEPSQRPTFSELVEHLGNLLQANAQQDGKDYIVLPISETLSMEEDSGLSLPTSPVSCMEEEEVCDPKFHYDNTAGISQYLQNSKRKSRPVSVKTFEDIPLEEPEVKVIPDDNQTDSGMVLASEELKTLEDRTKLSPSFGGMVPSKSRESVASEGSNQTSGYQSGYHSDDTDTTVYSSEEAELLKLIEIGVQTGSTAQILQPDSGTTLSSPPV

[20] = molecular target: MAPK14 (Homo sapiens, UniProt Q16539); experiment: Kinase inhibition profile: MAPK14; type: biochemical; settings: kinase inhibition profile (DSTT, Cerep); preliminary
MAPK14, sequence (Q16539 whole entry): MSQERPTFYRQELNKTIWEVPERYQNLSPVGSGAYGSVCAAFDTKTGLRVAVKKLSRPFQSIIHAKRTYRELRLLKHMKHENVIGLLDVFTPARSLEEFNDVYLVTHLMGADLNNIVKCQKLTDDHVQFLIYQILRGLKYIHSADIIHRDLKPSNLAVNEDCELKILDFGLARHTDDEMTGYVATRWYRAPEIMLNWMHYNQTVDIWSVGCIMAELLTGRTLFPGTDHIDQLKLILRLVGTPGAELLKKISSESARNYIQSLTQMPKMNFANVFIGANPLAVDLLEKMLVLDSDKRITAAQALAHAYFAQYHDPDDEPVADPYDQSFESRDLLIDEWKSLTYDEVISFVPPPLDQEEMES

[21] = system: SARS-CoV-2; type: in vivo, mice (B6.Cg-Tg(K18-ACE2)2Prlmn/J); settings: K18-ACE2 mice, oral b.i.d., vs placebo
[22] = 60 mg/kg (Figure 7), 100 mg/kg (methods)

Structure (SMILES) | IC50 [1] [µM] | activity against HSV-1 [2] | IC50 ([3]; Dengue virus, Vero) [µM] | IC50 [3] [µM] | antiviral activity against RVFV (in words) [4] | IC50 ([5]; Human mastadenovirus C, Vero) [nM] | IC50 [5] [nM] | IC50 [9] [nM] | activity against ZIKV [12] | activity against HSV-2 [13] | antiviral activity against HAdV (in words) [7] | also measured
CNC(=O)c1cc(Oc2ccc(NC(=O)Nc3cc(C(F)(F)F)ccc3-n3cncn3)cc2)ccn1 [Compound 1] | 39.5 | Not Active | 8.43 | 8.43 | antiviral activity was seen at 25 µM | 1160 | 1160 | 27 | Not Active | Active | – | IC50 against SARS-CoV-2 [6]: did not exhibit antiviral properties; EC50 ([7]; Human adenovirus sp., A549, 24 h, read-out: EC50 against HAdV): 4.5 µM; activity against HCMV [8]: Active; activity against CHKV [10]: Not Active; SI (selectivity index) ([11]; HeLa-ACE2 cells): 5; IC50 ([11]; Severe acute respiratory syndrome coronavirus 2, HeLa-ACE2, 24 h): 3200 nM
CNC(=O)c1cc(Oc2ccc(NC(=O)Nc3cc(C(F)(F)F)ccc3-n3ccnc3)cc2)ccn1 [Compound 2] | – | – | – | – | dose–response antiviral activity | – | – | – | – | – | did not have activity | IC50 ([9]; unit given as nm): 3 nM
O=C(Nc1ccc(Oc2ccncc2)cc1)Nc1cc(C(F)(F)F)ccc1-n1cncn1 [Compound 3] | – | – | – | – | most potent compound | – | – | 36 | – | – | most potent compound | host cell toxicity by visual observation [14]: displayed host cell toxicity at the highest concentrations
CNC(=O)c1cc(Oc2ccc(NC(=O)Nc3cc(C)c(Cl)cc3-n3cccc3)cc2)ccn1 [Compound 4] | 10.7 | Not Active | 0.01 | 0.012 | – | 600 | 630 | 126 | dose-dependent activity; also recorded: Active | dose-dependent activity; also recorded: Active | – | IC50 [15]: 430 nM; IC50 [16]: 31 nM; inhibition of TIE-2 (in words) [17]: strong inhibition; inhibition of SARS-CoV-2 replication in primary human mucociliary airway model [18]: showed activity; IC50 [19]: 7.9 nM; IC50 ([6]; Severe acute respiratory syndrome coronavirus 2, read-out: IC50 against SARS-CoV-2): 7.7 µM; activity against CHKV ([10]; Vero cells, MOI 0.01, column of table headed IC50 [µM]): Not Active; IC50 [20]: 87 nM; animal survival after lethal SARS-CoV-2 challenge [21, 22]: protective effect on animal survival; also recorded: increased survival; body weight loss after infection [21, 22]: reduced body weight loss; viral titers in lungs ([21]; days 1, 3 and 6 after infection, qRT-PCR): statistically significant reduction in viral titers; also recorded: reduced viral load in lungs; IC50 ([11]; Severe acute respiratory syndrome coronavirus 2, HeLa-ACE2 cells, 24 h, immunofluorescence of infected cells): 500 nM

Reference: paper PMC11945542 (Viruses, 2025)
